Drawing on US12077503B2, “Substituted cyclic amides and their use as herbicides” (FMC CORPORATION, priority 2015, dated 2024), this text covers pest or weed control, Corn plant response rating (crop injury, 0 = no effect, 100 = complete kill) and plant injury for 1 compound.

Common to all, as to assay type: in vivo
Test [1] deals with Kochia (Kochia scoparia). The test can be described thus: Test A preemergence. The settings on record: Bassia scoparia, pre-emergence, 240 h. A digest of the protocol: (§1)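 Seeds sprayed preemergence with a directed soil spray, or plants at 2 to 10 cm height and one- to two-leaf stage sprayed postemergence, with test chemicals in a non-phytotoxic solvent mixture containing surfactant, in loam soil–sand blend. Injury rated visually against untreated controls after about 10 d in greenhouse, 0 (no effect) to 100 (complete control).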

The test system of test [2] is barnyardgrass (Echinochloa crus-galli). Briefly: Test A preemergence. The settings on record: Echinochloa crus-galli, pre-emergence, 240 h. In a few lines:
as §1

For test [3], the system named is giant foxtail (Setaria faberii). Briefly: Test A preemergence. The settings on record: Setaria faberi, pre-emergence, 240 h. In a few lines: as §1
The subject of test [4] is pigweed (Amaranthus retroflexus). Briefly: Test A preemergence. The settings on record: Amaranthus retroflexus, pre-emergence, 240 h.
Test [5] deals with ragweed (common ragweed, Ambrosia elatior). The test can be described thus: Test A preemergence. The settings on record: Ambrosia artemisiifolia, pre-emergence, 240 h. A digest of the protocol:
as §1

The test system of test [6] is ryegrass, Italian (Italian ryegrass, Lolium multiflorum). Briefly: Test A preemergence. The settings on record: Lolium multiflorum, pre-emergence, 240 h. A digest of the protocol:
as §1

Test [7] deals with Galium (catchweed bedstraw, Galium aparine). The test can be described thus: Test A postemergence. The settings on record: Galium, post-emergence, 240 h, 125 g ai/ha, postemergence; visual injury after approximately 10 d; 0 to 100 scale (0 no effect, 100 complete control); read-out: Plant response rating, Galium. A digest of the protocol:
as §1

In test [8] the test system is Kochia (Kochia scoparia). Briefly: Test A postemergence. The settings on record: Bassia scoparia, post-emergence, 240 h, 125 g ai/ha, postemergence; visual injury after approximately 10 d; 0 to 100 scale (0 no effect, 100 complete control); read-out: Plant response rating, Kochia. In a few lines: as §1
For test [9], the system named is barnyardgrass (Echinochloa crus-galli). Briefly: Test A postemergence. The settings on record: Echinochloa crus-galli, post-emergence, 240 h, 125 g ai/ha, postemergence; visual injury after approximately 10 d; 0 to 100 scale (0 no effect, 100 complete control); read-out: Plant response rating, Barnyardgrass. In a few lines: as §1
Test [10] has as its system corn (Zea mays). The test can be described thus: Test A postemergence. The settings on record: Zea mays, post-emergence, 240 h, 125 g ai/ha, postemergence; visual injury after approximately 10 d; 0 to 100 scale (0 no effect, 100 complete control). In a few lines: as §1
Test [11] concerns giant foxtail (Setaria faberii). The test can be described thus: Test A postemergence. The settings on record: Setaria faberi, post-emergence, 240 h, 125 g ai/ha, postemergence; visual injury after approximately 10 d; 0 to 100 scale (0 no effect, 100 complete control); read-out: Plant response rating, Foxtail, Giant. A digest of the protocol:
as §1

Test [12] has as its system pigweed (Amaranthus retroflexus). The test can be described thus: Test A postemergence. The settings on record: Amaranthus retroflexus, post-emergence, 240 h, 125 g ai/ha, postemergence; visual injury after approximately 10 d; 0 to 100 scale (0 no effect, 100 complete control); read-out: Plant response rating, Pigweed. A digest of the protocol:
as §1

In test [13] the test system is ragweed (common ragweed, Ambrosia elatior). The test can be described thus: Test A postemergence. The settings on record: Ambrosia artemisiifolia, post-emergence, 240 h, 125 g ai/ha, postemergence; visual injury after approximately 10 d; 0 to 100 scale (0 no effect, 100 complete control); read-out: Plant response rating, Ragweed. A digest of the protocol: as §1
The subject of test [14] is ryegrass, Italian (Italian ryegrass, Lolium multiflorum). Briefly: Test A postemergence. The settings on record: Lolium multiflorum, post-emergence, 240 h, 125 g ai/ha, postemergence; visual injury after approximately 10 d; 0 to 100 scale (0 no effect, 100 complete control); read-out: Plant response rating, Ryegrass, Italian. In a few lines:
as §1

In test [15] the test system is wheat (Triticum aestivum). Briefly: Test A postemergence. The settings on record: Triticum aestivum, post-emergence, 240 h, 125 g ai/ha, postemergence; visual injury after approximately 10 d; 0 to 100 scale (0 no effect, 100 complete control); read-out: Plant response rating, Wheat. A digest of the protocol: as §1

Take `CC(F)(F)c1cccc([C@H]2CNC(=O)[C@@H]2C(=O)Nc2cccc(F)c2F)c1` [Compound 779]: the pest or weed control at 125 g/ha stood at 70% in test [1] (125 g ai/ha, preemergence, visual rating after approx. 10 d, 0 to 100 scale where 0 is no effect and 100 is complete control, read-out: Plant response rating, Kochia); 90% in test [2] (125 g ai/ha, preemergence, visual rating after approx. 10 d, 0 to 100 scale where 0 is no effect and 100 is complete control, read-out: Plant response rating, Barnyardgrass); 90% in test [3] (125 g ai/ha, preemergence, visual rating after approx. 10 d, 0 to 100 scale where 0 is no effect and 100 is complete control, read-out: Plant response rating, Foxtail, Giant); 40% in test [4] (125 g ai/ha, preemergence, visual rating after approx. 10 d, 0 to 100 scale where 0 is no effect and 100 is complete control, read-out: Plant response rating, Pigweed); 20% in test [5] (125 g ai/ha, preemergence, visual rating after approx. 10 d, 0 to 100 scale where 0 is no effect and 100 is complete control, read-out: Plant response rating, Ragweed); 40% in test [6] (125 g ai/ha, preemergence, visual rating after approx. 10 d, 0 to 100 scale where 0 is no effect and 100 is complete control, read-out: Plant response rating, Ryegrass, Italian). Also, the pest or weed control at 125 g/ha in test [7] was found to be 60%; in test [8] it was 30%; in test [9], 90%; in test [11] it was 80%; in test [12] it was 0%; in test [13], 20%. Besides, the pest or weed control at 125 g/ha in [14] stood at 40%. Moreover, the pest or weed control at 500 g/ha in test [1] (500 g ai/ha, Preemergence, visual injury vs untreated controls after approximately 10 d, read-out: Kochia plant response rating (0 to 100 scale where 0 is no effect and 100 is complete control)) came to 80%; in test [2] (500 g ai/ha, Preemergence, visual injury vs untreated controls after approximately 10 d, read-out: Barnyardgrass plant response rating (0 to 100 scale where 0 is no effect and 100 is complete control)) it was 90%; in [3] (500 g ai/ha, Preemergence, visual injury vs untreated controls after approximately 10 d, read-out: Foxtail, Giant plant response rating (0 to 100 scale where 0 is no effect and 100 is complete control)) it was 90%; in [4] (500 g ai/ha, Preemergence, visual injury vs untreated controls after approximately 10 d, read-out: Pigweed plant response rating (0 to 100 scale where 0 is no effect and 100 is complete control)) it was 60%; in test [5] (500 g ai/ha, Preemergence, visual injury vs untreated controls after approximately 10 d, read-out: Ragweed plant response rating (0 to 100 scale where 0 is no effect and 100 is complete control)), 70%; in test [6] (500 g ai/ha, Preemergence, visual injury vs untreated controls after approximately 10 d, read-out: Ryegrass, Italian plant response rating (0 to 100 scale where 0 is no effect and 100 is complete control)) it was 40%. In addition, in test [10], the Corn plant response rating (crop injury, 0 = no effect, 100 = complete kill) at 125 g/ha is 80%. Also, in test [15], the plant injury at 125 g/ha amounted to 80%.
